The nature of one data set: physchem. The note with it: water.
For data set [1], the system named is respiratory tract secretion. The following applies: cited from earlier work; for concentration of solids in the fluid of the respiratory tract / quantity of secretion / viscosity of the secretion: human and veterinary medicine; for specific weight: solids/fluid of the respiratory tract.
The nature of data set [2]: acute toxicity (LD50) in the mouse. The following applies: in vivo, ip. From the text:
For example, the acute toxicity (LD50) in the mouse is […]

Data set [3] can be described thus: maximum solubility in water.

Compound `CN(Cc1cc(Br)cc(Br)c1N)C1CCCCC1.Cl` [Compound A, N-(2-amino-3,5-dibromo-benzyl)-N-methyl-cyclohexylamine hydrochloride] registered a solubility in “physchem” of 200 to 5000 µg/mL. For the same compound, in data set [1], the “concentration of solids in the fluid of the respiratory tract” value is recorded as “reduction”, the quantity of secretion result is “significant increase”, the “viscosity of the secretion” value is listed as “decrease” and the specific weight entry is reported as “reduction”. In data set [2], this compound had an LD50 of more than 400 mg/kg.
On to `Cl.Nc1c(Br)cc(Br)cc1CN[C@H]1CC[C@H](O)CC1` [Compound B, N-(2-amino,3,5-dibromo-benzyl)-trans-4-hydroxy-cyclohexylamine hydrochloride], for which, in the data set “physchem”, the solubility stood at 16600 µg/mL. In data set [1], the “concentration of solids in the fluid of the respiratory tract” value is “reduction”, the quantity of secretion entry is listed as “significant increase”, the “viscosity of the secretion” value is listed as “decrease” and the specific weight result is given as “reduction”. The LD50 in data set [2] was determined as 268 mg/kg.
For the compound `Cl.Oc1c(Br)cc(Br)cc1CN[C@H]1CC[C@H](O)CC1` [Compound C, N-(3,5-dibromo-2-hydroxy-benzyl)-trans-4-hydroxycyclohexylamine hydrochloride], the solubility in data set [3] lay within 100 to 1000 µg/mL. Further, in data set [2], the median lethal dose (LD50) was more than 800 mg/kg.

The values are drawn from US4705803A, “Method of improving resorption of injected antibacterially active substances or combinations” (Boehringer Ingelheim Vetmedica GmbH, priority 1982, dated 1987).
